Measurements reported in US20240277800A1, “PHARMACEUTICAL COMPOSITION COMPRISING MACROCOSINE COMPOUND AND METHOD FOR PREPARING MACROCOSINE COMPOUND” (priority 2021, published 2024).
≈ marks a conversion by molar mass, not a printed value. Where two headings read alike, the source gives them in different places.

System: M. tuberculosis
Experiment: Antibacterial activity against tuberculosis bacteria, resazurin (REMA) MIC50
Type: cell-based
Conditions: Mycobacterium tuberculosis

## C/C=C(\NC(=O)c1csc(-c2csc(-c3ccc4c(n3)-c3csc(n3)[C@H]([C@@H](C)O)NC(=O)c3csc(n3)[C@H](C(C)C)NC(=O)c3csc(n3)/C(=C/C)NC(=O)[C@H]([C@@H](C)O)NC(=O)c3csc-4n3)n2)n1)C(=O)NCC(C)=O [Micrococcin P2]
Extensively Drug Resistant #3 (XDR-3), read-out: MIC50
  MIC50: 0.375 µM (≈ 0.428 µg/mL)
Extensively Drug Resistant #4 (XDR-4), read-out: MIC50
  MIC50: 0.094 µM (≈ 0.107 µg/mL)
Extensively Drug Resistant #5 (XDR-5), read-out: MIC50
  MIC50: 0.114 µM (≈ 0.13 µg/mL)
Extensively Drug Resistant #6 (XDR-6), read-out: MIC50
  MIC50: 0.722 µM (≈ 0.825 µg/mL)
Extensively Drug Resistant #10 (XDR-7)
  MIC50: 0.209 µM (≈ 0.239 µg/mL)
Multi Drug Resistant isolate #3 (MDR-3), read-out: MIC50
  MIC50: 0.073 µM (≈ 0.0834 µg/mL)
Multi Drug Resistant isolate #4 (MDR-4), read-out: MIC50
  MIC50: 0.169 µM (≈ 0.193 µg/mL)
Multi Drug Resistant isolate #11 (MDR-11), read-out: MIC50
  MIC50: 0.051 µM (≈ 0.0583 µg/mL)
Multi Drug Resistant isolate #20 (MDR-20), read-out: MIC50
  MIC50: 2.3 µM (≈ 2.63 µg/mL)
Multi Drug Resistant isolate #21 (MDR-21), read-out: MIC50
  MIC50: 0.044 µM (≈ 0.0503 µg/mL)
Multi Drug Resistant isolate #30 (MDR-30), read-out: MIC50
  MIC50: 0.304 µM (≈ 0.347 µg/mL)
